In brackets after ≈: the same amount, converted by molar mass.
How the values were obtained:
[1] = tested on: Pseudomonas aeruginosa (ATCC #27853); assay: Broth microdilution MIC, P. aeruginosa; type: cell-based
Experimental: A broth microdilution assay is used to assess the antimicrobial activity of the compounds. Compounds are tested at twofold serial dilutions, and the concentration that inhibits visible growth (OD600 at 10% of control) is defined as the MIC. Microorganisms tested include Staphylococcus aureus (ATCC #29213), Enterococcus faecalis (ATCC #29212), Pseudomonas aeruginosa (ATCC #27853), and Escherichia coli (ATCC #25922). The assay is performed in two growth media, Mueller Hinton Broth and Trypticase Soy Broth.
A blood (Tsoy/5% sheep blood) agar plate is inoculated from frozen stocks maintained in T soy broth containing 10% glycerol and incubated overnight at 37° C. Colonies are suspended in sterile broth so that the turbidity matches the turbidity of a 0.5 McFarland standard. The inoculum is diluted 1:10 in sterile broth (Mueller Hinton or Trypticase soy) and 195 ul is dispensed per well of a 96-well plate. […]
After 24 hours of incubation at 37° C., plates are read at OD600 on a Molecular Devices SpectraMax Plus Spectrophotometer. Average OD600 values are computed using SOFTmax Pro Software (Molecular Devices) and MIC values are determined by linear regression analysis using Prism version 3.02 (Graph Pad Software, San Diego). […]

[2] = tested on: MCF-7 human breast cancer cells; assay: Crystal violet cell growth assay; type: cell-based; conditions: MCF7, MCF-7 cells, read-out: Cr. Violet (IC50)
Experimental: Crystal Violet Cell Growth Assay
The crystal violet assay measure cell growth but not cytotoxicity. This assay employs crystal violet staining of fixed cells in 96-well plates with subsequent solubilization and measurement of OD490 on a spectrophotometer. The OD490 corresponds to cell growth per unit time measured. Cells are treated with the compounds of interest or vehicle controls and IC50 for each compound is computed.
To measure the cytotoxicity of specific compounds against cancer cells, 5×10^4 MCF-7 human breast cancer cells, obtained from the American Type Culture Collection are plated per well in 24 well plates in DMEM medium with 10% fetal bovine serum, penicillin, and streptomycin. Following overnight culture at 37° C. and 5% CO2, the compounds to be tested, dissolved in DMSO, are added to the wells in 1 μl volume at the following concentrations: 50, 40, 30, 20, and 10 μg/ml in triplicate. […]
After 72 hours of incubation, cells are stained with 0.5 ml of Crystal Violet stain (0.5% in 25% methanol) in each well. […] Following transfer of 100 μl from each well to a 96-well plate, plates are read at OD490 on a Molecular Devices SpectraMax Plus Spectrophotometer Average OD490 values are computed using SOFTmax Pro Software (Molecular Devices) and IC50 values are determined by linear regression analysis using Prism version 3.02 (Graph Pad Software, San Diego).

`C=CCC1(CC=C)C(=O)SC(C)(CCCCCCCC)C1=O` (racemic) [Compound 4, 3,3-Diallyl-5-methyl-5-octyl-thiophene-2,4-dione] was tested, and the “PSAE/MH (MIC)” value ([1]; Mueller Hinton Broth) was “Neg”, the PSAE/Tsoy ([1]; Trypticase Soy Broth) was “Neg” and the IC50 [2] was 15 ± 7.7 µg/mL (≈ 46.5 µM).

Source: patent US20090005435A1, “Novel Compounds, Pharmaceutical Compositions Containing Same, and Methods of Use for Same” (priority 2004, published 2009)
